# In PMC6039436, “Radiobrominated benzimidazole-quinoline derivatives as Platelet-derived growth factor receptor beta (PDGFRβ) imaging probes” (Scientific Reports, 2018):
# Marks after values point to notes of the source that are not given here.
# Tests used:
# [1] = tested on: BxPC3-luc tumor; assay: Biodistribution in BxPC3-luc tumor-bearing mice; assay type: in vivo, BALB/c nu/nu mice
# Procedure: We investigated the biodistribution of the radiotracers in BxPC3-luc tumor-bearing mice by co-injecting [^77Br]2 with [^125I]4 (Table 3), and [^77Br]3 with [^125I]5 (Table 4).
# Animal experiments were conducted in strict accordance with the Guidelines for the Care and Use of Laboratory Animals of Kanazawa University. The animal experimental protocols used were approved by the Committee on Animal Experimentation of Kanazawa University (Permit Number: AP-163766). The animals were housed with free access to food and water at approximately 23 °C with a 12 h light/dark schedule. ddY mice (six-week-old, male, 27–30 g) and BALB/c nu/nu mice (four-week-old, female, 12–17 g) were purchased from Japan SLC Inc. (Hamamatsu, Japan). For preparing the tumor-bearing mice, BxPC3-luc cells (5 × 10^6 cells) were subcutaneously injected into the left shoulder of BALB/c nu/nu mice. The tumor reached palpable size after two weeks of the inoculation.
# (§1) Mice were intravenously injected via the tail with 100 µL of saline solution of [^77Br]2 and [^125I]4 or [^77Br]3 and [^125I]5 (74 kBq, respectively), containing 10% ethanol and 1% tween-80. The ddY mice were sacrificed at 10 min, 1, 4, and 24 h postinjection. Meanwhile, tumor-bearing mice were sacrificed at 1 h postinjection.
# (§2) Tissues in mice were resected and weighed. The radioactivity of the tissues was counted by a gamma counter and counts were corrected for background radiation. The data were expressed as percent injection dose per gram tissue (%ID/g).
# [2] = Biodistribution in ddY mice; assay type: in vivo; conditions: i.v. co-injection
# Procedure: In this study, to minimize both the number of mice consumed in the experiment and the potential for experimental errors, we co-injected radiobrominated and radioiodinated compounds into mice[30],[31]. High radioactivity in the liver, small intestine, and large intestine was observed.
# as §1, §2
# [3] = tested on: BxPC3-luc cells (PDGFRβ-positive); assay: Cellular uptake study (double tracer method); assay type: cell-based; conditions: BxPC3-luc (PDGFRβ-positive) vs MCF7 (PDGFRβ-negative), 0.5–4 h
# Procedure: Figure 5 Cellular uptake study. Time-dependent accumulation of (a) [^77Br]2 and [^125I]4 (b) [^77Br]3 and [^125I]5 in BxPC3-luc and MCF7 cells. Data were presented as mean ± SD for three samples.
# Radiotracer uptake experiments in tumor cells were performed using BxPC3-luc and MCF7 cell lines. To compare the uptake between radiobrominated compounds, [^77Br]2 and [^77Br]3, and the corresponding radioiodinated compounds, [^125I]4 and [^125I]5, the cellular uptake experiments were performed by a double tracer method as described previously with a slight modification[30],[31],[35]. Briefly, the cells were seeded in RPMI 1640 medium containing 10% FBS and antibiotics on six-well plates (2 × 10^5 cells/well) for 24 h in a 5% CO2 incubator at 37 °C. After removal of medium, cells were incubated in medium without FBS containing [^77Br]2 (3.7 kBq/well) and [^125I]4 (3.7 kBq/well) or [^77Br]3 (3.7 kBq/well) and [^125I]5 (3.7 kBq/well) and tween-80 (0.1%) for 0.5, 1, 2 and 4 h. Radioiodinated compounds were prepared as described previously][24]. Cells were washed with ice-cold 1 mL of PBS and dissolved using 0.5 mL of 1 M NaOH and wells were washed with 1 M NaOH aqueous solution (0.5 mL). The radioactivity of pooled basic fractions was counted by a gamma counter. A range between 16 and 71 keV was used for measuring ^125I and between 95 and 700 for ^77Br. When radioactivity of ^77Br was counted, the crossover of ^125I activity into the ^77Br channel was negligible. More than one month after the experiment, the radioactivity of ^125I was determined because at that time ^77Br has been decayed and its radioactivity was negligible. The protein in the cell was quantified by a BCA Protein Assay Kit. All data were expressed as %dose/µg protein.
# [4] = design: method as in PMID 28838832; conditions: radioiodinated compounds; cited from earlier work
smiles,measurement,setting,value
"COCCOc1ccc2c(c1)ncn2-c1ccc2c([125I])ccc(N3CCC(N)CC3)c2n1 [[^125I]4, [^125I]1-{5-iodo-2-[5-(2-methoxyethoxy)-1H-benzo[d]imidazol-1-yl]quinolin-8-yl}piperidin-4-amine, reference compound]",Tumor-to-blood ratio of radioactivity,[1]; 1 h postinjection,1.9
same,Radioactivity in Blood,"[1]; i.v. co-injection, 1 h",0.63 (0.05) %injected dose/gram of tissue
same,Radioactivity in Bone,"[1]; i.v. co-injection, 1 h",0.83 (0.10)^* %injected dose/gram of tissue
same,Radioactivity in Brain,"[1]; i.v. co-injection, 1 h",0.07 (0.00) %injected dose/gram of tissue
same,Radioactivity in BxPC3-luc tumor,"[1]; i.v. co-injection, 1 h",1.19 (0.06)^* %injected dose/gram of tissue
same,Radioactivity in Heart,"[1]; i.v. co-injection, 1 h",1.51 (0.40) %injected dose/gram of tissue
same,Radioactivity in Kidney,"[1]; i.v. co-injection, 1 h",15.56 (3.61) %injected dose/gram of tissue
same,Radioactivity in Large intestine,"[1]; i.v. co-injection, 1 h",2.46 (0.35) %injected dose/gram of tissue
same,Radioactivity in Liver,"[1]; i.v. co-injection, 1 h",11.02 (0.73) %injected dose/gram of tissue
same,Radioactivity in Lung,"[1]; i.v. co-injection, 1 h",9.14 (2.14) %injected dose/gram of tissue
same,Radioactivity in Muscle,"[1]; i.v. co-injection, 1 h",0.79 (0.10) %injected dose/gram of tissue
same,Radioactivity in Pancreas,"[1]; i.v. co-injection, 1 h",5.48 (0.93) %injected dose/gram of tissue
same,Radioactivity in Small intestine,"[1]; i.v. co-injection, 1 h",47.01 (5.56) %injected dose/gram of tissue
same,Radioactivity in Spleen,"[1]; i.v. co-injection, 1 h",2.76 (0.73) %injected dose/gram of tissue
same,Radioactivity in Stomach,"[1]; i.v. co-injection, 1 h",0.97 (0.19) %injected dose /organ
same,Radioactivity in Blood,[2]; 10 min,1.15 (0.08)^* %injected dose/gram tissue
same,Radioactivity in Bone,[2]; 10 min,1.53 (0.14) %injected dose/gram tissue
same,Radioactivity in Brain,[2]; 10 min,0.07 (0.00)^** %injected dose/gram tissue
same,Radioactivity in Heart,[2]; 10 min,4.27 (0.27) %injected dose/gram tissue
same,Radioactivity in Kidney,[2]; 10 min,14.44 (1.31) %injected dose/gram tissue
same,Radioactivity in Large intestine,[2]; 10 min,0.80 (0.07)^* %injected dose/gram tissue
same,Radioactivity in Liver,[2]; 10 min,11.59 (0.69) %injected dose/gram tissue
same,Radioactivity in Lung,[2]; 10 min,9.64 (0.66)^* %injected dose/gram tissue
same,Radioactivity in Muscle,[2]; 10 min,1.92 (0.18) %injected dose/gram tissue
same,Radioactivity in Pancreas,[2]; 10 min,3.52 (0.33)^* %injected dose/gram tissue
same,Radioactivity in Small intestine,[2]; 10 min,9.32 (2.30) %injected dose/gram tissue
same,Radioactivity in Spleen,[2]; 10 min,5.08 (0.56) %injected dose/gram tissue
same,Radioactivity in Stomach,[2]; 10 min,1.66 (0.11) %injected dose /organ
same,Radioactivity in Blood,[2]; 1 h,0.32 (0.09) %injected dose/gram tissue
same,Radioactivity in Bone,[2]; 1 h,1.22 (0.29) %injected dose/gram tissue
same,Radioactivity in Brain,[2]; 1 h,0.15 (0.04) %injected dose/gram tissue
same,Radioactivity in Heart,[2]; 1 h,1.23 (0.49) %injected dose/gram tissue
same,Radioactivity in Kidney,[2]; 1 h,8.18 (2.71) %injected dose/gram tissue
same,Radioactivity in Large intestine,[2]; 1 h,2.16 (0.54) %injected dose/gram tissue
same,Radioactivity in Liver,[2]; 1 h,3.72 (1.18) %injected dose/gram tissue
same,Radioactivity in Lung,[2]; 1 h,3.88 (0.72) %injected dose/gram tissue
same,Radioactivity in Muscle,[2]; 1 h,0.78 (0.11) %injected dose/gram tissue
same,Radioactivity in Pancreas,[2]; 1 h,2.49 (0.63) %injected dose/gram tissue
same,Radioactivity in Small intestine,[2]; 1 h,25.44 (6.86) %injected dose/gram tissue
same,Radioactivity in Spleen,[2]; 1 h,1.67 (0.41) %injected dose/gram tissue
same,Radioactivity in Stomach,[2]; 1 h,1.76 (0.58) %injected dose /organ
same,Radioactivity in Blood,[2]; 4 h,0.19 (0.05) %injected dose/gram tissue
same,Radioactivity in Bone,[2]; 4 h,0.32 (0.08) %injected dose/gram tissue
same,Radioactivity in Brain,[2]; 4 h,0.03 (0.00)^** %injected dose/gram tissue
same,Radioactivity in Heart,[2]; 4 h,0.31 (0.05)^* %injected dose/gram tissue
same,Radioactivity in Kidney,[2]; 4 h,4.28 (0.68) %injected dose/gram tissue
same,Radioactivity in Large intestine,[2]; 4 h,51.43 (8.57) %injected dose/gram tissue
same,Radioactivity in Liver,[2]; 4 h,3.45 (1.02) %injected dose/gram tissue
same,Radioactivity in Lung,[2]; 4 h,2.18 (0.55) %injected dose/gram tissue
same,Radioactivity in Muscle,[2]; 4 h,0.23 (0.06)^** %injected dose/gram tissue
same,Radioactivity in Pancreas,[2]; 4 h,1.27 (0.11)^* %injected dose/gram tissue
same,Radioactivity in Small intestine,[2]; 4 h,4.98 (0.89) %injected dose/gram tissue
same,Radioactivity in Spleen,[2]; 4 h,0.43 (0.11) %injected dose/gram tissue
same,Radioactivity in Stomach,[2]; 4 h,0.85 (0.21) %injected dose /organ
same,Radioactivity in Blood,[2]; 24 h,0.03 (0.00)^** %injected dose/gram tissue
same,Radioactivity in Bone,[2]; 24 h,0.15 (0.05)^** %injected dose/gram tissue
same,Radioactivity in Brain,[2]; 24 h,0.02 (0.00)^** %injected dose/gram tissue
same,Radioactivity in Heart,[2]; 24 h,0.10 (0.09)^** %injected dose/gram tissue
same,Radioactivity in Kidney,[2]; 24 h,0.13 (0.03) %injected dose/gram tissue
same,Radioactivity in Large intestine,[2]; 24 h,0.14 (0.02) %injected dose/gram tissue
same,Radioactivity in Liver,[2]; 24 h,0.29 (0.08) %injected dose/gram tissue
same,Radioactivity in Lung,[2]; 24 h,0.15 (0.08)^* %injected dose/gram tissue
same,Radioactivity in Muscle,[2]; 24 h,0.04 (0.01)^** %injected dose/gram tissue
same,Radioactivity in Pancreas,[2]; 24 h,0.07 (0.02) %injected dose/gram tissue
same,Radioactivity in Small intestine,[2]; 24 h,0.04 (0.00)^** %injected dose/gram tissue
same,Radioactivity in Spleen,[2]; 24 h,0.11 (0.09)^* %injected dose/gram tissue
same,Radioactivity in Stomach,[2]; 24 h,0.05 (0.00)^** %injected dose /organ
same,Cellular uptake in BxPC3-luc cells,[3],higher than that in MCF7 cells
same,n-octanol/phosphate buffer partition coefficient (log P),[4],2.71 ± 0.03
